# Measurements taken from US20100130604A1, “USE OF ROSMARINIC ACID IN MANUFACTURE OF MEDICAMENTS FOR TREATING OR PREVENTING HEPATIC AND RENAL DISEASES” (SHANGDONG LUYE NATURAL DRUG RESEARCH AND DEVELOPMENT CO., …, priority 2006, published 2010).
# Experiments:
# [1] = tested on: proximal tubular epithelial cells (PTECs); test: Proliferation of PTECs cultured in glucose-rich medium (MTT); assay type: cell-based; settings: for OD value: 72 h, 570 nm
# Protocol: A 1000 mg/L stock solution of RA in DMEM medium was prepared, and filtered through 0.22 μm microfilter to remove bacteria. The stock was then aliquoted in appropriate containers and stored at −20° C. in darkness. It is good for use within 2 weeks. DMEM supplemented with 2% fetal bovine serum (FBS) was used to dilute the stock to desired concentrations before use.
# Remove frozen vials storing PTECs from liquid nitrogen, thaw in water bath at 37° C. for 5 min, centrifuge at 1000 r·min^−1 for 5 min, and discard the supernatant. Blow up the cells with culture medium and transfer them into flasks for static culture. The medium was DMEM supplemented with 10 v % FBS, 1×10^5 U·L^−1 penicillin, 100 mg·L^−1 streptomycin. The cells are cultured at 37° C., 5% CO2, and saturated humidity for 2-3 days before 0.25% trypsin were used to digest the cells which were then passaged.
# PTEC cells at logarithmic phase were seeded to 96-well plate at the density of 1×10^5/mL. The medium was replaced with serum-free DMEM 24 hours later and the cell culture was cultured statically for 24 hours. Discard the supernatant, dose the wells according to table 3: normal control group (NG, 5 mmol·L^−1), high glucose group (HG, 30 mmol·L^−1), NG+10 mg/L RA group, NG+50 mg/L of RA group, HG+10 mg/L of RA group, HG50 mg/L of RA group, with 6 wells in each group. Incubate for 72 hours respectively. Add 20 μL of MTT (5 mg·mL^−1) to each well 4 hours before the experiment is terminated. Remove supernatant 4 hours later, and 150 μL of DMSO was added to each well, shake for 10 min and use ELISA reader to determine OD value at 570 nm.
# [2] = tested on: rats with diabetic nephropathy; test: Diabetic nephropathy in rats (left nephrectomy + streptozocin); assay type: in vivo, Sprague Dawley rats; settings: for creatinine: serum
# Protocol: After 1 week-long acclimation period, animals were anaesthetised with 10% chloral hydrate (0.35 mL/100 g, i.p.) and nephrectomy was exercised to the left kidney. One week later, a single dose of 1% of streptozocin solution was i.v. injected to all animals at 60 mg/kg. After 72h, blood was collected from eyepit to test blood glucose level with the above-mentioned kit. The model was considered successful when blood glucose level >16.7 mmol/L. When the model is established, 130 rats were randomly divided into 13 groups, with 10 animals in each group, namely, a normal control group, a model group, benzanapril p.o. Group at 10 mg/kg, RA i.v. groups at 2.5 mg/kg, 5 mg/kg, 25 mg/kg, 75 mg/kg, and 150 mg/kg of RA, and RA p.o. groups at 5 mg/kg, 10 mg/kg, 50 mg/kg, 150 mg/kg, and 300 mg/kg of RA. The drugs were administered once every day. Blood was collected from eyepit at week 8 and week 16 to determine serum levels of creatinine and urea nitrogen. Urinary protein excretion within 24 hours was also studied. The animals were sacrificed 24 hours after the last dose and kidney removed for histopathological examination.
compound,measurement,setting,value
"O=C(/C=C/c1ccc(O)c(O)c1)O[C@H](Cc1ccc(O)c(O)c1)C(=O)O [RA, R(+)2-{[3-(3,4-dihydroxylphenyl-(oxo-2-propenyl)oxy]3,4-dihydroxylphenylpropionic acid]}]",OD value,[1]; HG (30 mmol/L glucose) + 10 mg/L RA,1.289 ± 0.041
same,OD value,[1]; HG (30 mmol/L glucose) + 50 mg/L RA,1.317 ± 0.077
same,OD value,[1]; NG (5 mmol/L glucose) + 10 mg/L RA,1.168 ± 0.106
same,OD value,[1]; NG (5 mmol/L glucose) + 50 mg/L RA,1.052 ± 0.036
same,PTECs proliferation induced by high level of glucose,"[1]; certain concentrations of RA, P<0.05",can inhibit PTECs proliferation induced by high level of glucose
same,24 h urinary protein excretion,"[2]; 8 weeks, i.v. 2.5 mg/kg",20.29 ± 2.21 mg/24 h
same,Blood glucose,"[2]; 8 weeks, i.v. 2.5 mg/kg",21.23 ± 5.66 mmol/L
same,Serum urea nitrogen,"[2]; 8 weeks, i.v. 2.5 mg/kg",18.01 ± 1.62 mg/dL
same,24 h urinary protein excretion,"[2]; 8 weeks, i.v. 5 mg/kg",19.19 ± 2.15 mg/24 h
same,Blood glucose,"[2]; 8 weeks, i.v. 5 mg/kg",21.02 ± 6.14 mmol/L
same,Serum urea nitrogen,"[2]; 8 weeks, i.v. 5 mg/kg",17.91 ± 1.80 mg/dL
same,24 h urinary protein excretion,"[2]; 8 weeks, i.v. 25 mg/kg",17.59 ± 2.12 mg/24 h
same,Blood glucose,"[2]; 8 weeks, i.v. 25 mg/kg",21.15 ± 5.74 mmol/L
same,Serum urea nitrogen,"[2]; 8 weeks, i.v. 25 mg/kg",15.42 ± 3.36 mg/dL
same,24 h urinary protein excretion,"[2]; 8 weeks, i.v. 75 mg/kg",16.78 ± 2.52 mg/24 h
same,Blood glucose,"[2]; 8 weeks, i.v. 75 mg/kg",21.03 ± 4.74 mmol/L
same,Serum urea nitrogen,"[2]; 8 weeks, i.v. 75 mg/kg",14.76 ± 2.19 mg/dL
same,24 h urinary protein excretion,"[2]; 8 weeks, i.v. 150 mg/kg",16.39 ± 2.25 mg/24 h
same,Blood glucose,"[2]; 8 weeks, i.v. 150 mg/kg",21.23 ± 5.54 mmol/L
same,Serum urea nitrogen,"[2]; 8 weeks, i.v. 150 mg/kg",13.87 ± 1.75 mg/dL
same,24 h urinary protein excretion,"[2]; 8 weeks, p.o. 5 mg/kg",20.59 ± 2.34 mg/24 h
same,Blood glucose,"[2]; 8 weeks, p.o. 5 mg/kg",21.23 ± 6.36 mmol/L
same,Serum urea nitrogen,"[2]; 8 weeks, p.o. 5 mg/kg",19.37 ± 3.85 mg/dL
same,24 h urinary protein excretion,"[2]; 8 weeks, p.o. 10 mg/kg",19.11 ± 2.19 mg/24 h
same,Blood glucose,"[2]; 8 weeks, p.o. 10 mg/kg",20.87 ± 6.55 mmol/L
same,Serum urea nitrogen,"[2]; 8 weeks, p.o. 10 mg/kg",17.57 ± 2.70 mg/dL
same,24 h urinary protein excretion,"[2]; 8 weeks, p.o. 50 mg/kg",17.89 ± 2.64 mg/24 h
same,Blood glucose,"[2]; 8 weeks, p.o. 50 mg/kg",21.07 ± 5.46 mmol/L
same,Serum urea nitrogen,"[2]; 8 weeks, p.o. 50 mg/kg",15.96 ± 1.95 mg/dL
same,24 h urinary protein excretion,"[2]; 8 weeks, p.o. 150 mg/kg",17.18 ± 2.56 mg/24 h
same,Blood glucose,"[2]; 8 weeks, p.o. 150 mg/kg",21.32 ± 6.44 mmol/L
same,Serum urea nitrogen,"[2]; 8 weeks, p.o. 150 mg/kg",14.76 ± 2.65 mg/dL
same,24 h urinary protein excretion,"[2]; 8 weeks, p.o. 300 mg/kg",16.89 ± 2.75 mg/24 h
same,Blood glucose,"[2]; 8 weeks, p.o. 300 mg/kg",20.97 ± 5.54 mmol/L
same,Serum urea nitrogen,"[2]; 8 weeks, p.o. 300 mg/kg",14.42 ± 2.90 mg/dL
same,24 h urinary protein excretion,"[2]; 16 weeks, i.v. 2.5 mg/kg",60.96 ± 6.85 mg/24 h
same,Blood glucose,"[2]; 16 weeks, i.v. 2.5 mg/kg",22.02 ± 5.34 mmol/L
same,Serum urea nitrogen,"[2]; 16 weeks, i.v. 2.5 mg/kg",33.91 ± 3.60 mg/dL
same,24 h urinary protein excretion,"[2]; 16 weeks, i.v. 5 mg/kg",57.28 ± 8.46 mg/24 h
same,Blood glucose,"[2]; 16 weeks, i.v. 5 mg/kg",22.15 ± 4.24 mmol/L
same,Serum urea nitrogen,"[2]; 16 weeks, i.v. 5 mg/kg",30.42 ± 7.36 mg/dL
same,24 h urinary protein excretion,"[2]; 16 weeks, i.v. 25 mg/kg",55.34 ± 7.67 mg/24 h
same,Blood glucose,"[2]; 16 weeks, i.v. 25 mg/kg",22.03 ± 4.59 mmol/L
same,Serum urea nitrogen,"[2]; 16 weeks, i.v. 25 mg/kg",26.76 ± 4.19 mg/dL
same,24 h urinary protein excretion,"[2]; 16 weeks, i.v. 75 mg/kg",54.78 ± 7.96 mg/24 h
same,Blood glucose,"[2]; 16 weeks, i.v. 75 mg/kg",22.35 ± 7.28 mmol/L
same,Serum urea nitrogen,"[2]; 16 weeks, i.v. 75 mg/kg",23.07 ± 3.95 mg/dL
same,24 h urinary protein excretion,"[2]; 16 weeks, i.v. 150 mg/kg",54.28 ± 7.46 mg/24 h
same,Blood glucose,"[2]; 16 weeks, i.v. 150 mg/kg",22.23 ± 6.24 mmol/L
same,Serum urea nitrogen,"[2]; 16 weeks, i.v. 150 mg/kg",22.57 ± 3.45 mg/dL
same,24 h urinary protein excretion,"[2]; 16 weeks, p.o. 5 mg/kg",65.55 ± 8.71 mg/24 h
same,Blood glucose,"[2]; 16 weeks, p.o. 5 mg/kg",22.23 ± 5.66 mmol/L
same,Serum urea nitrogen,"[2]; 16 weeks, p.o. 5 mg/kg",39.37 ± 3.85 mg/dL
same,24 h urinary protein excretion,"[2]; 16 weeks, p.o. 10 mg/kg",61.33 ± 6.65 mg/24 h
same,Blood glucose,"[2]; 16 weeks, p.o. 10 mg/kg",21.87 ± 5.55 mmol/L
same,Serum urea nitrogen,"[2]; 16 weeks, p.o. 10 mg/kg",38.37 ± 3.85 mg/dL
same,24 h urinary protein excretion,"[2]; 16 weeks, p.o. 50 mg/kg",57.28 ± 8.46 mg/24 h
same,Blood glucose,"[2]; 16 weeks, p.o. 50 mg/kg",22.07 ± 4.46 mmol/L
same,Serum urea nitrogen,"[2]; 16 weeks, p.o. 50 mg/kg",34.57 ± 5.60 mg/dL
same,24 h urinary protein excretion,"[2]; 16 weeks, p.o. 150 mg/kg",56.28 ± 8.76 mg/24 h
same,Blood glucose,"[2]; 16 weeks, p.o. 150 mg/kg",21.32 ± 6.34 mmol/L
same,Serum urea nitrogen,"[2]; 16 weeks, p.o. 150 mg/kg",28.96 ± 3.95 mg/dL
same,24 h urinary protein excretion,"[2]; 16 weeks, p.o. 300 mg/kg",55.78 ± 9.46 mg/24 h
same,Blood glucose,"[2]; 16 weeks, p.o. 300 mg/kg",21.97 ± 5.34 mmol/L
same,Serum urea nitrogen,"[2]; 16 weeks, p.o. 300 mg/kg",27.76 ± 5.30 mg/dL
same,kidney pathological examination,[2]; RA treated groups vs model group,fewer lesions than the model group in a dose-dependent manner
same,creatinine,"[2]; 8 weeks, i.v. 2.5 mg/kg",0.91 ± 0.12 mg/dL
same,creatinine,"[2]; 8 weeks, i.v. 5 mg/kg",0.90 ± 0.09 mg/dL
same,creatinine,"[2]; 8 weeks, i.v. 25 mg/kg",0.75 ± 0.18 mg/dL
same,creatinine,"[2]; 8 weeks, i.v. 75 mg/kg",0.72 ± 0.15 mg/dL
same,creatinine,"[2]; 8 weeks, i.v. 150 mg/kg",0.69 ± 0.11 mg/dL
same,creatinine,"[2]; 8 weeks, p.o. 5 mg/kg",0.96 ± 0.09 mg/dL
same,creatinine,"[2]; 8 weeks, p.o. 10 mg/kg",0.88 ± 0.15 mg/dL
same,creatinine,"[2]; 8 weeks, p.o. 50 mg/kg",0.77 ± 0.13 mg/dL
same,creatinine,"[2]; 8 weeks, p.o. 150 mg/kg",0.75 ± 0.12 mg/dL
same,creatinine,"[2]; 8 weeks, p.o. 300 mg/kg",1.40 ± 0.28 mg/dL
same,creatinine,"[2]; 16 weeks, i.v. 2.5 mg/kg",1.60 ± 0.18 mg/dL
same,creatinine,"[2]; 16 weeks, i.v. 5 mg/kg",1.52 ± 0.37 mg/dL
same,creatinine,"[2]; 16 weeks, i.v. 25 mg/kg",1.32 ± 0.28 mg/dL
same,creatinine,"[2]; 16 weeks, i.v. 75 mg/kg",1.26 ± 0.28 mg/dL
same,creatinine,"[2]; 16 weeks, i.v. 150 mg/kg",1.20 ± 0.22 mg/dL
same,creatinine,"[2]; 16 weeks, p.o. 5 mg/kg",1.97 ± 0.19 mg/dL
same,creatinine,"[2]; 16 weeks, p.o. 10 mg/kg",1.92 ± 0.19 mg/dL
same,creatinine,"[2]; 16 weeks, p.o. 50 mg/kg",1.77 ± 0.28 mg/dL
same,creatinine,"[2]; 16 weeks, p.o. 150 mg/kg",1.53 ± 0.28 mg/dL
same,creatinine,"[2]; 16 weeks, p.o. 300 mg/kg",1.50 ± 0.26 mg/dL
same,"serum creatinine, urea nitrogen, 24-hour urinary protein excretion","[2]; week 8 and week 16, i.v. 2.5, 5, 25, 75, 150 mg/kg, p.o. 5, 10, 50, 150, 300 mg/kg",can all significantly reduce serum creatinine and urea nitrogen levels as well as 24-hour urinary protein excretion
